# From PubChem BioAssay AID2060486 (Molecular Pharmacology Branch, DTP, NCI, 2025)
# Test system: IGROV1 complex spheroids (HUVEC, MSC), viability % test/control
# Assay: Anticancer human tumor IGROV1 cell line growth inhibition [GQUAD];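 note: spheroids exposed to compounds for 7 days before readout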;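 for viability, T/C: 100% = DMSO vehicle control viability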
# Conditions: for IC50: curve of first compound; for viability, T/C: stronger effect = lower value
# In short: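 Multi-cell-type spheroids of tumor cells with HUVEC and mesenchymal stem cells, treated with drug combinations. Concentrations descend in half-log steps from near clinical Cmax, or from 10 microM where Cmax is unknown; viability read-out.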
# [1] = second compound 0.0316 µM, first compound 0.000999 µM
# [2] = second compound 0.0316 µM, first compound 0.00316 µM
# [3] = second compound 0.0316 µM, first compound 0.00999 µM
# [4] = second compound 0.0316 µM, first compound 0.0316 µM
# [5] = second compound 0.0316 µM, first compound 0.0999 µM
# [6] = second compound 0.0316 µM, first compound 0.316 µM
# [7] = second compound 0.1 µM, first compound 0.000999 µM
# [8] = second compound 0.1 µM, first compound 0.00316 µM
# [9] = second compound 0.1 µM, first compound 0.00999 µM
# [10] = second compound 0.1 µM, first compound 0.0316 µM
# [11] = second compound 0.1 µM, first compound 0.0999 µM
# [12] = second compound 0.1 µM, first compound 0.316 µM
# [13] = second compound 0.316 µM, first compound 0.000999 µM
# [14] = second compound 0.316 µM, first compound 0.00316 µM
# [15] = second compound 0.316 µM, first compound 0.00999 µM
# [16] = second compound 0.316 µM, first compound 0.0316 µM
# [17] = second compound 0.316 µM, first compound 0.0999 µM
# [18] = second compound 0.316 µM, first compound 0.316 µM
# [19] = second compound 1 µM, first compound 0.000999 µM
# [20] = second compound 1 µM, first compound 0.00316 µM
# [21] = second compound 1 µM, first compound 0.00999 µM
# [22] = second compound 1 µM, first compound 0.0316 µM
# [23] = second compound 1 µM, first compound 0.0999 µM
# [24] = second compound 1 µM, first compound 0.316 µM
# [25] = second compound 3.16 µM, first compound 0.000999 µM
# [26] = second compound 3.16 µM, first compound 0.00316 µM
# [27] = second compound 3.16 µM, first compound 0.00999 µM
# [28] = second compound 3.16 µM, first compound 0.0316 µM
# [29] = second compound 3.16 µM, first compound 0.0999 µM
# [30] = second compound 3.16 µM, first compound 0.316 µM
# [31] = second compound 10 µM, first compound 0.000999 µM
# [32] = second compound 10 µM, first compound 0.00316 µM
# [33] = second compound 10 µM, first compound 0.00999 µM
# [34] = second compound 10 µM, first compound 0.0316 µM
# [35] = second compound 10 µM, first compound 0.0999 µM
# [36] = second compound 10 µM, first compound 0.316 µM
# [37] = second compound 0.0316 µM, first compound 0.1 µM
# [38] = second compound 0.0316 µM, first compound 1 µM
# [39] = second compound 0.0316 µM, first compound 3.16 µM
# [40] = second compound 0.0316 µM, first compound 10 µM
# [41] = second compound 0.1 µM, first compound 0.1 µM
# [42] = second compound 0.1 µM, first compound 1 µM
# [43] = second compound 0.1 µM, first compound 3.16 µM
# [44] = second compound 0.1 µM, first compound 10 µM
# [45] = second compound 0.316 µM, first compound 0.1 µM
# [46] = second compound 0.316 µM, first compound 1 µM
# [47] = second compound 0.316 µM, first compound 3.16 µM
# [48] = second compound 0.316 µM, first compound 10 µM
# [49] = second compound 1 µM, first compound 0.1 µM
# [50] = second compound 1 µM, first compound 1 µM
# [51] = second compound 1 µM, first compound 3.16 µM
# [52] = second compound 1 µM, first compound 10 µM
# [53] = second compound 3.16 µM, first compound 0.1 µM
# [54] = second compound 3.16 µM, first compound 1 µM
# [55] = second compound 3.16 µM, first compound 3.16 µM
# [56] = second compound 3.16 µM, first compound 10 µM
# [57] = second compound 10 µM, first compound 0.1 µM
# [58] = second compound 10 µM, first compound 1 µM
# [59] = second compound 10 µM, first compound 3.16 µM
# [60] = second compound 10 µM, first compound 10 µM
smiles,measurement,setting,value
CC[C@@]1(O)C(=O)OCc2c1cc1n(c2=O)Cc2cc3c(CN(C)C)c(O)ccc3nc2-1 + Cc1[nH]c2ccc(F)cc2c1-c1nc2c3cccnc3c3ncccc3c2[nH]1,IC50,second compound 0.0316 µM,0.0263 µM
same,IC50,second compound 0.1 µM,0.0231 µM
same,IC50,second compound 0.316 µM,0.00914 µM
same,IC50,second compound 1 µM,< 0.000999 µM
same,IC50,second compound 3.16 µM,< 0.000999 µM
same,IC50,second compound 10 µM,< 0.000999 µM
same,"viability, T/C",[1],99.8%
same,"viability, T/C",[2],73.2%
same,"viability, T/C",[3],92.3%
same,"viability, T/C",[4],42.7%
same,"viability, T/C",[5],10.9%
same,"viability, T/C",[6],10.8%
same,"viability, T/C",[7],96.9%
same,"viability, T/C",[8],77.7%
same,"viability, T/C",[9],94.9%
same,"viability, T/C",[10],35%
same,"viability, T/C",[11],10.7%
same,"viability, T/C",[12],11.1%
same,"viability, T/C",[13],93.1%
same,"viability, T/C",[14],58.5%
same,"viability, T/C",[15],56.9%
same,"viability, T/C",[16],34.6%
same,"viability, T/C",[17],9.45%
same,"viability, T/C",[18],10.2%
same,"viability, T/C",[19],4.53%
same,"viability, T/C",[20],5.2%
same,"viability, T/C",[21],3.92%
same,"viability, T/C",[22],4.65%
same,"viability, T/C",[23],5.01%
same,"viability, T/C",[24],4.15%
same,"viability, T/C",[25],4.32%
same,"viability, T/C",[26],4.59%
same,"viability, T/C",[27],4.67%
same,"viability, T/C",[28],4.52%
same,"viability, T/C",[29],4.31%
same,"viability, T/C",[30],2.77%
same,"viability, T/C",[31],4.73%
same,"viability, T/C",[32],3.46%
same,"viability, T/C",[33],4.25%
same,"viability, T/C",[34],4.75%
same,"viability, T/C",[35],4.66%
same,"viability, T/C",[36],3.29%
Cc1cccc(N(C)C(=O)C2C(O)CCN2c2nc(C)cc(C(F)(F)F)c2C#N)c1 (stereo not drawn) + Cc1[nH]c2ccc(F)cc2c1-c1nc2c3cccnc3c3ncccc3c2[nH]1,IC50,second compound 0.0316 µM,> 10 µM
same,IC50,second compound 0.1 µM,> 10 µM
same,IC50,second compound 0.316 µM,> 10 µM
same,IC50,second compound 1 µM,< 0.0316 µM
same,IC50,second compound 3.16 µM,< 0.0316 µM
same,IC50,second compound 10 µM,< 0.0316 µM
same,"viability, T/C",[4],108%
same,"viability, T/C",[37],82.3%
same,"viability, T/C",[6],105%
same,"viability, T/C",[38],76.1%
same,"viability, T/C",[39],98%
same,"viability, T/C",[40],100%
same,"viability, T/C",[10],105%
same,"viability, T/C",[41],82.2%
same,"viability, T/C",[12],107%
same,"viability, T/C",[42],69.1%
same,"viability, T/C",[43],105%
same,"viability, T/C",[44],105%
same,"viability, T/C",[16],83.7%
same,"viability, T/C",[45],53.2%
same,"viability, T/C",[18],70%
same,"viability, T/C",[46],78.8%
same,"viability, T/C",[47],94.7%
same,"viability, T/C",[48],76.3%
same,"viability, T/C",[22],4%
same,"viability, T/C",[49],6.22%
same,"viability, T/C",[24],5.36%
same,"viability, T/C",[50],4.57%
same,"viability, T/C",[51],4.11%
same,"viability, T/C",[52],2.68%
same,"viability, T/C",[28],3.63%
same,"viability, T/C",[53],4.69%
same,"viability, T/C",[30],4.7%
same,"viability, T/C",[54],4.75%
same,"viability, T/C",[55],3.97%
same,"viability, T/C",[56],2.92%
same,"viability, T/C",[34],4.3%
same,"viability, T/C",[57],3.62%
same,"viability, T/C",[36],4.75%
same,"viability, T/C",[58],3.64%
same,"viability, T/C",[59],4.04%
same,"viability, T/C",[60],3.25%
Cn1ncnc1[C@H]1c2n[nH]c(=O)c3cc(F)cc(c23)N[C@@H]1c1ccc(F)cc1 + Cc1[nH]c2ccc(F)cc2c1-c1nc2c3cccnc3c3ncccc3c2[nH]1,IC50,second compound 0.0316 µM,0.149 µM
same,IC50,second compound 0.1 µM,0.0735 µM
same,IC50,second compound 0.316 µM,0.053 µM
same,IC50,second compound 1 µM,< 0.000999 µM
same,IC50,second compound 3.16 µM,< 0.000999 µM
same,IC50,second compound 10 µM,< 0.000999 µM
same,"viability, T/C",[1],105%
same,"viability, T/C",[2],79.6%
same,"viability, T/C",[3],86.7%
same,"viability, T/C",[4],62.3%
same,"viability, T/C",[5],67.7%
same,"viability, T/C",[6],33.4%
same,"viability, T/C",[7],100%
same,"viability, T/C",[8],80.1%
same,"viability, T/C",[9],83%
same,"viability, T/C",[10],48.9%
same,"viability, T/C",[11],53.1%
same,"viability, T/C",[12],32%
same,"viability, T/C",[13],96.4%
same,"viability, T/C",[14],81.9%
same,"viability, T/C",[15],68.9%
same,"viability, T/C",[16],54.8%
same,"viability, T/C",[17],46.5%
same,"viability, T/C",[18],27.5%
same,"viability, T/C",[19],5.11%
same,"viability, T/C",[20],4.97%
same,"viability, T/C",[21],5.21%
same,"viability, T/C",[22],4.33%
same,"viability, T/C",[23],4.79%
same,"viability, T/C",[24],4.17%
same,"viability, T/C",[25],4.43%
same,"viability, T/C",[26],4.31%
same,"viability, T/C",[27],4.37%
same,"viability, T/C",[28],4.14%
same,"viability, T/C",[29],4.64%
same,"viability, T/C",[30],3.96%
same,"viability, T/C",[31],4.02%
same,"viability, T/C",[32],3.63%
same,"viability, T/C",[33],5.14%
same,"viability, T/C",[34],4.68%
same,"viability, T/C",[35],4.53%
same,"viability, T/C",[36],4.33%
O=C(c1cc(Cc2n[nH]c(=O)c3ccccc23)ccc1F)N1CCN(C(=O)C2CC2)CC1 + Cc1[nH]c2ccc(F)cc2c1-c1nc2c3cccnc3c3ncccc3c2[nH]1,IC50,second compound 0.0316 µM,5.34 µM
same,IC50,second compound 0.1 µM,3.12 µM
same,IC50,second compound 0.316 µM,5.53 µM
same,IC50,second compound 1 µM,< 0.0316 µM
same,IC50,second compound 3.16 µM,< 0.0316 µM
same,IC50,second compound 10 µM,< 0.0316 µM
same,"viability, T/C",[4],97.1%
same,"viability, T/C",[37],82.3%
same,"viability, T/C",[6],94.9%
same,"viability, T/C",[38],66.5%
same,"viability, T/C",[39],72.8%
same,"viability, T/C",[40],31%
same,"viability, T/C",[10],89.1%
same,"viability, T/C",[41],83.2%
same,"viability, T/C",[12],69.4%
same,"viability, T/C",[42],57.3%
same,"viability, T/C",[43],62.3%
same,"viability, T/C",[44],23.5%
same,"viability, T/C",[16],72.9%
same,"viability, T/C",[45],82.4%
same,"viability, T/C",[18],74%
same,"viability, T/C",[46],82.3%
same,"viability, T/C",[47],69.8%
same,"viability, T/C",[48],28%
same,"viability, T/C",[22],4.09%
same,"viability, T/C",[49],3.9%
same,"viability, T/C",[24],4.15%
same,"viability, T/C",[50],4.33%
same,"viability, T/C",[51],6.04%
same,"viability, T/C",[52],4.53%
same,"viability, T/C",[28],3.99%
same,"viability, T/C",[53],3.97%
same,"viability, T/C",[30],3.46%
same,"viability, T/C",[54],3.87%
same,"viability, T/C",[55],4.83%
same,"viability, T/C",[56],3.88%
same,"viability, T/C",[34],4.17%
same,"viability, T/C",[57],3.02%
same,"viability, T/C",[36],3.67%
same,"viability, T/C",[58],4.06%
same,"viability, T/C",[59],5.08%
same,"viability, T/C",[60],4.55%
